Among the data in US8088761B2, “Enzyme inhibitors” (Cancer Research Technology Limited, priority 2005, dated 2012) are IC50 values, retold here.

One assay relates to HCT116 cells. Description: Cell viability assay (MTT) in HCT116 cell line. The assay is classed as cell-based. The conditions noted are these: Homo sapiens, HCT-116, 72 hrs, IC50 range, read-out: HCT116 cell growth inhibition. In outline: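 MTT read-out (4 hrs, 37 °C, DMSO extraction) following 72 hrs of treatment with 0-50 μM Aurora inhibitor. HCT116 cells were plated a day earlier and tested in triplicate; IC50 derived from the curve.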

In a further assay the target is T1, Aurora-A (Homo sapiens, UniProt O14965).
T1 sequence (O14965 1-403): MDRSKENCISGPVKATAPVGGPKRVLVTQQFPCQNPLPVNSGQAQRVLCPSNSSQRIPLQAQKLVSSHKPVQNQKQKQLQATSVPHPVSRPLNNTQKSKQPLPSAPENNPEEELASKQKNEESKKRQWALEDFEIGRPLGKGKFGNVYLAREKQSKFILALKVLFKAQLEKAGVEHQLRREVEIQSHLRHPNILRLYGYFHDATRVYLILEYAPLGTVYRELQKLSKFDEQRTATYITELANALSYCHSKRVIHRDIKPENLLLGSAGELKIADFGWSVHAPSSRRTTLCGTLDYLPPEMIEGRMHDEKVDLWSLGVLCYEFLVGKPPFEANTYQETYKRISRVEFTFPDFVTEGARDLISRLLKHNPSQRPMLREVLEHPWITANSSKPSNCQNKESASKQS
Briefly: Flashplate Aurora A enzyme inhibition assay. The assay is classed as biochemical. The conditions noted are these: Flashplate assay; IC50 range; read-out: Aurora-A inhibition. The method in brief: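 This is a radiometric Flashplate format: plates were precoated with DTT, and compound (in 2% DMSO) was mixed with kinase buffer (pH 7.5 Tris, MgCl2, NaCl) containing 1 mM MBP, 20 μM ATP and ^33P-ATP. The reaction was started with 250 ng Aurora-A per well and incubated 2 h at RT. It was then stopped by 10 mM sodium pyrophosphate washing, and plates were scintillation-counted.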

`COc1ccc(-c2nc3c(N4CCN(Cc5nccn5C)CC4)c(Br)cnc3[nH]2)cc1` [Example 167, 6-Bromo-2-(4-methoxyphenyl)-7-(4-((1-methyl-1H-imidazol-2-yl)methyl)piperazin-1-yl)-3H-imidazo[4,5-b]pyridine]: the IC50 in the assay on HCT116 cells was 500 to 2000 nM; at Aurora-A, under 500 nM.

As to `CN(C)CCOc1ccc(-c2nc3c(N4CCN(CC(=O)Nc5nccs5)CC4)c(Cl)cnc3[nH]2)cc1` [Example 186, 2-(4-(6-Chloro-2-(4-(2-(dimethylamino)ethoxy)phenyl)-3H-imidazo[4,5-b]pyridin-7-yl)piperazin-1-yl)-N-(thiazol-2-yl)acetamide], the IC50 in the assay with HCT116 cells and at Aurora-A was under 500 nM throughout.

As to `O=C(CN1CCN(c2c(Cl)cnc3[nH]c(-c4ccc(OCCO)cc4)nc23)CC1)Nc1nccs1` [Example 183, 2-(4-(6-Chloro-2-(4-(2-hydroxyethoxy)phenyl)-3H-imidazo[4,5-b]pyridin-7-yl)piperazin-1-yl)-N-(thiazol-2-yl)acetamide], the IC50 in the assay with HCT116 cells was 500 to 2000 nM; on Aurora-A, under 500 nM.

Take `NCc1ccc(-c2nc3c(N4CCC(Cc5ccccc5)CC4)c(Br)cnc3[nH]2)cc1` [Example 133, (4-(7-(4-Benzylpiperidin-1-yl)-6-bromo-3H-imidazo[4,5-b]pyridin-2-yl)phenyl)methanamine]: the figures for the IC50 in the assay with HCT116 cells and at Aurora-A were 500 to 2000 nM and under 500 nM, respectively.

As for `COc1ccc(-c2nc3c(N4CCN(Cc5ccncc5)CC4)c(Br)cnc3[nH]2)cc1` [Example 67, 6-Bromo-2-(4-methoxy-phenyl)-7-(4-pyridin-4-ylmethyl-piperazin-1-yl)-3H-imidazo[4,5-b]pyridine], the IC50 in the assay on HCT116 cells and at Aurora-A was under 500 nM in each case.

Regarding `O=C(CN1CCN(c2c(Cl)cnc3[nH]c(-c4cccc(OCCN5CCOCC5)c4)nc23)CC1)Nc1nccs1` [Example 185, 2-(4-(6-Chloro-2-(3-(2-morpholinoethoxy)phenyl)-3H-imidazo[4,5-b]pyridin-7-yl)piperazin-1-yl)-N-(thiazol-2-yl)acetamide], the IC50 in the assay on HCT116 cells and at Aurora-A was under 500 nM in each case.

On to `CC(C)(C)OC(=O)NCc1ccc(-c2nc3c(N4CCC(Cc5ccccc5)CC4)c(Br)cnc3[nH]2)cc1` [Example 132, tert-Butyl 4-(7-(4-benzylpiperidin-1-yl)-6-bromo-3H-imidazo[4,5-b]pyridin-2-yl)benzylcarbamate], for which the IC50 is 2000 to 50000 nM in the assay on HCT116 cells and under 500 nM on Aurora-A.

As for `CN(C)c1ccc(-c2nc3c(N4CCN(CC(=O)N(C)c5nccs5)CC4)c(Br)cnc3[nH]2)cc1` [Example 89, 2-(4-(6-Bromo-2-(4-(dimethylamino)phenyl)-3H-imidazo[4,5-b]pyridin-7-yl)piperazin-1-yl)-N-methyl-N-(thiazol-2-yl)acetamide], the IC50 in the assay on HCT116 cells and on Aurora-A was under 500 nM throughout.

With `Brc1cnc2[nH]c(-c3ccc(Cn4ccnc4)cc3)nc2c1N1CCN(Cc2cccnc2)CC1` [Example 110, 2-(4-((1H-Imidazol-1-yl)methyl)phenyl)-6-bromo-7-(4-(pyridin-3-ylmethyl)piperazin-1-yl)-3H-imidazo[4,5-b]pyridine], the IC50 in the assay with HCT116 cells is 500 to 2000 nM; on Aurora-A it was under 500 nM.

Turning to `Cc1nc(CN2CCN(c3c(Cl)cnc4[nH]c(-c5ccc(Cn6cccn6)cc5)nc34)CC2)cs1` [Example 173, 4-((4-(2-(4-((1H-Pyrazol-1-yl)methyl)phenyl)-6-chloro-3H-imidazo[4,5-b]pyridin-7-yl)piperazin-1-yl)methyl)-2-methylthiazole], the IC50 with HCT116 cells and at Aurora-A was under 500 nM throughout.

Take `NCc1ccc(-c2nc3c(N4CCC(Oc5ccccc5)CC4)c(Br)cnc3[nH]2)cc1` [Example 135, (4-(6-Bromo-7-(4-phenoxypiperidin-1-yl)-3H-imidazo[4,5-b]pyridin-2-yl)phenyl)methanamine]: the IC50 was 500 to 2000 nM in the assay with HCT116 cells and under 500 nM at Aurora-A.

Take `CN(C)CCOc1ccc(-c2nc3c(N4CCN(Cc5cccnc5)CC4)c(Br)cnc3[nH]2)cc1` [Example 111, 2-(4-(6-Bromo-7-(4-(pyridin-3-ylmethyl)piperazin-1-yl)-3H-imidazo[4,5-b]pyridin-2-yl)phenoxy)-N,N-dimethylethanamine]: the IC50 in the assay with HCT116 cells and on Aurora-A was under 500 nM in each case.

For the molecule `Brc1cnc2[nH]c(-c3ccc(OCCN4CCOCC4)cc3)nc2c1N1CCN(Cc2ccncc2)CC1` [Example 82, 6-Bromo-2-[4-(2-morpholin-4-yl-ethoxy)-phenyl]-7-(4-pyridin-4-ylmethyl-piperazin-1-yl)-3H-imidazo[4,5-b]pyridine], the IC50 with HCT116 cells and on Aurora-A was under 500 nM in each case.

Take `CC(c1ccncc1)N1CCN(c2c(Br)cnc3[nH]c(-c4cccc(CN5CCN(C)CC5)c4)nc23)CC1` (centres unmarked) [Example 95, 6-Bromo-2-(3-((4-methylpiperazin-1-yl)methyl)phenyl)-7-(4-(1-(pyridin-4-yl)ethyl)piperazin-1-yl)-3H-imidazo[4,5-b]pyridine]: the IC50 is 500 to 2000 nM in the assay on HCT116 cells and under 500 nM at Aurora-A.

For the molecule `CN(C)c1ccc(-c2nc3c(N4CCN(CC(=O)Nc5ccccc5)CC4)c(Cl)cnc3[nH]2)cc1` [Example 22, 2-(4-(6-Chloro-2-(4-(dimethylamino)phenyl)-3H-imidazo[4,5-b]pyridin-7-yl)piperazin-1-yl)-N-phenylacetamide], the values for the IC50 in the assay on HCT116 cells and on Aurora-A were 2000 to 50000 nM and under 500 nM, respectively.

On to `Brc1cnc2[nH]c(-c3ccc(Cn4cccn4)cc3)nc2c1N1CCN(Cc2cccnc2)CC1` [Example 107, 2-(4-((1H-Pyrazol-1-yl)methyl)phenyl)-6-bromo-7-(4-(pyridin-3-ylmethyl)piperazin-1-yl)-3H-imidazo[4,5-b]pyridine], for which the IC50 with HCT116 cells was 500 to 2000 nM; at Aurora-A, under 500 nM.

As for `O=C(CN1CCN(c2c(Cl)cnc3[nH]c(-c4ccc(N5CCS(=O)(=O)CC5)cc4)nc23)CC1)Nc1nccs1` [Example 187, 2-(4-(6-Chloro-2-(4-(1,1-dioxothiomorpholino)phenyl)-3H-imidazo[4,5-b]pyridin-7-yl)piperazin-1-yl)-N-(thiazol-2-yl)acetamide], the IC50 in the assay on HCT116 cells was 500 to 2000 nM; at Aurora-A, under 500 nM.

With `Cn1cncc1CN1CCN(c2c(Br)cnc3[nH]c(-c4ccc(Cn5cccn5)cc4)nc23)CC1` [Example 182, 2-(4-((1H-Pyrazol-1-yl)methyl)phenyl)-6-bromo-7-(4-((1-methyl-1H-imidazol-5-yl)methyl)piperazin-1-yl)-3H-imidazo[4,5-b]pyridine], the IC50 in the assay on HCT116 cells is 500 to 2000 nM; at Aurora-A it was under 500 nM.

Turning to `CC(C)(C)OC(=O)NCc1cccc(-c2nc3c(N4CCN(CC(=O)Nc5nccs5)CC4)c(Br)cnc3[nH]2)c1` [Example 11, (3-{6-Bromo-7-[4-(thiazol-2-ylcarbamoylmethyl)-piperazin-1-yl]-3H-imidazo[4,5-b]pyridin-2-yl}-benzyl)-carbamic acid tert-butyl ester], the IC50 in the assay with HCT116 cells is 500 to 2000 nM; on Aurora-A, under 500 nM.

For `CN(C)c1ccc(-c2nc3c(N4CCN(CC(=O)Nc5ccccc5)CC4)c(Br)cnc3[nH]2)cc1` [Example 20, 2-(4-(6-Bromo-2-(4-(dimethylamino)phenyl)-3H-imidazo[4,5-b]pyridin-7-yl)piperazin-1-yl)-N-phenylacetamide], the IC50 in the assay on HCT116 cells was 500 to 2000 nM; at Aurora-A it was under 500 nM.

As to `CN(C)c1ccc(-c2nc3c(N4CCN(C(=O)Nc5nccs5)CC4)c(Br)cnc3[nH]2)cc1` [Example 42, 4-(6-Bromo-2-(4-(dimethylamino)phenyl)-3H-imidazo[4,5-b]pyridin-7-yl)-N-(thiazol-2-yl)piperazine-1-carboxamide], the IC50 in the assay with HCT116 cells was 2000 to 50000 nM; at Aurora-A, under 500 nM.

Turning to `Cc1nc(CN2CCN(c3c(Cl)cnc4[nH]c(-c5ccc(CN6CCNCC6)cc5)nc34)CC2)cs1` [Example 175, 4-((4-(6-Chloro-2-(4-(piperazin-1-ylmethyl)phenyl)-3H-imidazo[4,5-b]pyridin-7-yl)piperazin-1-yl)methyl)-2-methylthiazole], the IC50 with HCT116 cells and at Aurora-A was under 500 nM each time.

`CC(c1cccnc1)N1CCN(c2c(Br)cnc3[nH]c(-c4ccc(N(C)C)cc4)nc23)CC1` (centres unmarked) [Example 52, 4-(6-Bromo-7-(4-(1-(pyridin-3-yl)ethyl)piperazin-1-yl)-3H-imidazo[4,5-b]pyridin-2-yl)-N,N-dimethylaniline]: the IC50 with HCT116 cells was 500 to 2000 nM; on Aurora-A, under 500 nM.

With `COc1ccc(-c2nc3c(N4CCN(Cc5ccc(F)cc5)CC4)c(Br)cnc3[nH]2)cc1` [Example 147, 6-Bromo-7-(4-(4-fluorobenzyl)piperazin-1-yl)-2-(4-methoxyphenyl)-3H-imidazo[4,5-b]pyridine], the IC50 is 2000 to 50000 nM in the assay on HCT116 cells and under 500 nM on Aurora-A.

Take `Clc1ccc(CN2CCN(c3c(Br)cnc4[nH]c(-c5ccc(CN6CCOCC6)cc5)nc34)CC2)cc1` [Example 69, 6-Bromo-7-[4-(4-chloro-benzyl)-piperazin-1-yl]-2-(4-morpholin-4-ylmethyl-phenyl)-3H-imidazo[4,5-b]pyridine]: the IC50 with HCT116 cells was 500 to 2000 nM; at Aurora-A, under 500 nM.
